These results are taken from patent US20190367516A1 (Bayer Pharma Aktiengesellschaft, priority 2015, published 2019).

This assay has as its target T1, human M2 receptor (Homo sapiens, UniProt P08172).
T1 sequence (P08172 1-466): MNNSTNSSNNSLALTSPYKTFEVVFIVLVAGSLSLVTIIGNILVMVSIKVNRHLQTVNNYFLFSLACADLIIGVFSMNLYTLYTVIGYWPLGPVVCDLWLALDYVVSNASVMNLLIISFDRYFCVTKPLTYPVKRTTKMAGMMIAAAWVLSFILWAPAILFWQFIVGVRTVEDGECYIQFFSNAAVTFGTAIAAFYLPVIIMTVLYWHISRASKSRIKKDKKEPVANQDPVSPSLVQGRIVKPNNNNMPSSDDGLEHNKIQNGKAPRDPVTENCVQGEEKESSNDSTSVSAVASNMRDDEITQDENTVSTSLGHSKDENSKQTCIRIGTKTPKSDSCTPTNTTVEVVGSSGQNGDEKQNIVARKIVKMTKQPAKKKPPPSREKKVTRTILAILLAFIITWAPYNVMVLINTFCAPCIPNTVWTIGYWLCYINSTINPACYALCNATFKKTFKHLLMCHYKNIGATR
The following applies: for Efficiency: boosting of the acetylcholine effect at EC20 acetylcholine concentration.

The mark [1] stands for this setting: Receptor activity EC50, M2-GIRK1/4 activation test, acetylcholine at EC20, allosteric potency, in some cases mean values from two or more determinations.
[2] abbreviates: Receptor activity EC50, allosteric potency at EC20 acetylcholine, M2-GIRK1/4 reporter cells, in some cases mean of two or more determinations.
Where [3] appears, read: read-out: Efficiency, boosting of the acetylcholine effect at EC20 acetylcholine concentration, M2-GIRK1/4 reporter cells.

Read-outs that look alike come from different tables or passages of the source.

For orientation: EC50 means the concentration at which the effect is half-maximal. A low value points to greater potency.

Turning to `CN(C)c1ccc2c(=O)c(C(=O)NC34CCC(F)(CC3)CC4)cn(-c3ccc(F)cc3F)c2n1` [Example 47, 1-(2,4-Difluorophenyl)-7-(dimethylamino)-N-(4-fluorobicyclo[2.2.2]oct-1-yl)-4-oxo-1,4-dihydro-1,8-naphthyridine-3-carboxamide], under setting [1], a half-maximal response (EC50) required 43 nM. Same read-out and setting: with `CN(C)c1ccc2c(=O)c(C(=O)NC34CCC(C)(CC3)CC4)cn(-c3ccc(F)cc3F)c2n1` [Example 42, 1-(2,4-Difluorophenyl)-7-(dimethylamino)-N-(4-methylbicyclo[2.2.2]oct-1-yl)-4-oxo-1,4-dihydro-1,8-naphthyridine-3-carboxamide] the figure was 17 nM; with `O=C(N[C@H](c1ccccc1Cl)C(F)(F)F)c1cn(-c2ccc(F)cc2F)c2nc(N3CCCC(O)C3=O)ccc2c1=O` (single isomer, unassigned) [Example 210], 285 nM; with `CC[C@@H](NC(=O)c1cn(-c2c(F)cccc2Cl)c2nc(N3CC[C@@H](O)C3=O)ccc2c1=O)C(F)(F)F` [Example 308, 1-(2-Chloro-6-fluorophenyl)-7-[(3R)-3-hydroxy-2-oxopyrrolidin-1-yl]-4-oxo-N-[(2R)-1,1,1-trifluorobutan-2-yl]-1,4-dihydro-1,8-naphthyridine-3-carboxamide], 30 nM.

Turning to `O=C(NC12CC(C1)C2)c1cn(-c2c(F)cc(F)cc2F)c2nc(N3CC(O)C4(CC4)C3)ccc2c1=O` (racemic) [Example 628, N-(Bicyclo[1.1.1]pent-1-yl)-7-[7-hydroxy-5-azaspiro[2.4]hept-5-yl]-4-oxo-1-(2,4,6-trifluorophenyl)-1,4-dihydro-1,8-naphthyridine-3-carboxamide], the Efficiency (M2-GIRK1/4 reporter cells) was determined as 89.5%. In the case of `CC(C)C[C@@H](NC(=O)c1cn(-c2c(F)cc(F)cc2F)c2nc(N3C[C@@H](O)[C@H](O)C3)ccc2c1=O)C(F)(F)F` [Example 544, 7-[(3R,4R)-3,4-Dihydroxypyrrolidin-1-yl]-4-oxo-N-[(2R)-1,1,1-trifluoro-4-methylpentan-2-yl]-1-(2,4,6-trifluorophenyl)-1,4-dihydro-1,8-naphthyridine-3-carboxamide], under setting [2], a half-maximal response (EC50) required 8 nM. Further, the Emax under setting [3] was determined as 98%. For the compound `O=C(NC(CC(F)(F)F)C1CC1)c1cn(-c2c(F)cc(F)cc2F)c2nc(N3C[C@@H](O)CC3=O)ccc2c1=O` (single isomer, unassigned) [Example 513], the response under setting [2] was half-maximal at 10 nM (EC50). Also, the Emax under setting [3] turned out to be 91%. Take `CC[C@@H](NC(=O)c1cn(-c2c(F)cccc2F)c2nc(N3CCNC3=O)ccc2c1=O)C(F)(F)F` [Example 638, 1-(2,6-Difluorophenyl)-4-oxo-7-(2-oxoimidazolidin-1-yl)-N-[(2R)-1,1,1-trifluorobutan-2-yl]-1,4-dihydro-1,8-naphthyridine-3-carboxamide]: the midpoint of the response under setting [2], the EC50, lay at 63 nM. Besides, the Emax under setting [3] is 100%.

The compound `CCC(NC(=O)c1cn(-c2ccc(F)cc2F)c2nc(N(C)CC(F)(F)F)ccc2c1=O)C(F)(F)F` (racemic) [Example 100] displayed a concentration for a half-maximal effect (EC50) under setting [1] of 143 nM. In turn, `CC(NC(=O)c1cn(-c2c(F)cc(F)cc2F)c2nc(N3C[C@@H](C)NC3=O)ccc2c1=O)C(F)(F)C(F)(F)F` (single isomer, unassigned) [Example 459] yielded a concentration giving a half-maximal response (EC50) under setting [2] of 4 nM. The Emax under setting [3] stood at 95%.

`CCC(COC(F)(F)F)NC(=O)c1cn(-c2c(F)cc(F)cc2F)c2nc(N3C[C@@H](O)CC3=O)ccc2c1=O` (single isomer, unassigned) [Example 411] returned a concentration giving a half-maximal response (EC50) under setting [2] of 21 nM. Under setting [3], the Emax worked out at 100%.

As for `Cc1cccc(C(NC(=O)c2cn(-c3ccc(F)cc3F)c3nc(N(C)C)ccc3c2=O)C(F)(F)F)c1` (racemic) [Example 138, rac-1-(2,4-Difluorophenyl)-7-(dimethylamino)-4-oxo-N-[2,2,2-trifluoro-1-(3-methylphenyl)ethyl]-1,4-dihydro-1,8-naphthyridine-3-carboxamide], the EC50 under setting [1] was found to be 68 nM.

Take `O=C(N[C@@H](C1CC1)C(F)(F)F)c1cn(-c2c(F)cccc2Cl)c2nc(N3C[C@@H](O)CC3=O)ccc2c1=O` [Example 352, 1-(2-Chloro-6-fluorophenyl)-N-[(1S)-1-cyclopropyl-2,2,2-trifluoroethyl]-7-[(4S)-4-hydroxy-2-oxopyrrolidin-1-yl]-4-oxo-1,4-dihydro-1,8-naphthyridine-3-carboxamide]: the response under setting [1] was half-maximal at 17 nM (EC50). Against the preceding compound, the EC50 is about 4-fold lower. Under setting [2], `CC1CC(=O)N(c2ccc3c(=O)c(C(=O)NC(C4CC4)C(F)(F)F)cn(-c4c(F)cc(F)cc4F)c3n2)C1` (stereo in doubt) [Example 420, N-[(1R)-1-cyclopropyl-2,2,2-trifluoroethyl]-7-[4-methyl-2-oxopyrrolidin-1-yl]-4-oxo-1-(2,4,6-trifluorophenyl)-1,4-dihydro-1,8-naphthyridine-3-carboxamide] showed an EC50 of 16 nM. In addition, the Emax under setting [3] was determined as 97.5%. For the compound `C[C@H](NC(=O)c1cn(-c2c(F)cc(F)cc2F)c2nc(N3CC4CC4(O)C3)ccc2c1=O)C(F)(F)F` (mixture of isomers) [Example 316, 7-[1-Hydroxy-3-azabicyclo[3.1.0]hex-3-yl]-4-oxo-1-(2,4,6-trifluorophenyl)-N-[(2S)-1,1,1-trifluoropropan-2-yl]-1,4-dihydro-1,8-naphthyridine-3-carboxamide], the midpoint of the response under setting [1], the EC50, lay at 28 nM. That is a double-digit nanomolar value. Regarding `CC[C@H](NC(=O)c1cn(-c2c(F)cc(F)cc2Cl)c2nc(N3CCC(C)C3=O)ccc2c1=O)C(F)(F)F` (single isomer, unassigned) [Example 423], under setting [2], a half-maximal effect (EC50) was put at 3150 nM. This compound also showed an Efficiency (M2-GIRK1/4 reporter cells) of 53.5%.

Under setting [1], `CC[C@@H](NC(=O)c1cn(-c2ccc(F)cc2F)c2nc(N3CCOC(C(F)F)C3)ccc2c1=O)C(F)(F)F` (single isomer, unassigned) [Example 264] came in with an EC50 of 530 nM. Under setting [2], `O=C(N[C@@H](C1CC1)C(F)(F)F)c1cn(-c2c(F)cc(F)cc2F)c2nc(N3CCOC(CO)C3)ccc2c1=O` (single isomer, unassigned) [Example 464, N-[(1 S)-1-Cyclopropyl-2,2,2-trifluoroethyl]-7-[2-(hydroxymethyl)morpholin-4-yl]-4-oxo-1-(2,4,6-trifluorophenyl)-1,4-dihydro-1,8-naphthyridine-3-carboxamide] returned an EC50 of 128 nM. The Emax under setting [3] was determined as 82.5%.

`O=C(N[C@@H](C1CC1)C(F)(F)F)c1cn(-c2c(F)cc(F)cc2F)c2nc(N3C[C@@H](O)[C@@H](O)C3)ccc2c1=O` [Example 630, N-[(1S)-1-Cyclopropyl-2,2,2-trifluoroethyl]-7-[(3R,4S)-3,4-dihydroxypyrrolidin-1-yl]-4-oxo-1-(2,4,6-trifluorophenyl)-1,4-dihydro-1,8-naphthyridine-3-carboxamide] displayed an EC50 under setting [2] of 48 nM. Besides, the Emax (read-out: Efficiency) was found to be 100%. Under setting [1], `CNc1ccc2c(=O)c(C(=O)NC34CC5CC(C3)CC(C(F)(F)F)(C5)C4)cn(-c3ccc(F)cc3F)c2n1` [Example 160, 1-(2,4-Difluorophenyl)-7-(methylamino)-4-oxo-N-[3-(trifluoromethyl)tricyclo[3.3.1.1^3,7]dec-1-yl]-1,4-dihydro-1,8-naphthyridine-3-carboxamide] had a concentration giving a half-maximal response (EC50) of 85 nM.

`CC[C@@H](NC(=O)c1cn(-c2ccc(F)cc2F)c2nc(N3CCC4CC4(O)C3)ccc2c1=O)C(F)(F)F` (stereo partly drawn) [Example 354, 1-(2,4-Difluorophenyl)-7-[1-hydroxy-3-azabicyclo[4.1.0]hept-3-yl]-4-oxo-N-[(2R)-1,1,1-trifluorobutan-2-yl]-1,4-dihydro-1,8-naphthyridine-3-carboxamide]: under setting [1], the midpoint of the response, the EC50, lay at 38 nM. Compound `CC1(NC(=O)c2cn(-c3c(F)cc(F)cc3F)c3nc(N4C[C@@H](O)[C@H](O)C4)ccc3c2=O)CC(F)(F)C1` [Example 655, N-(3,3-Difluoro-1-methylcyclobutyl)-7-[(3R,4R)-3,4-dihydroxypyrrolidin-1-yl]-4-oxo-1-(2,4,6-trifluorophenyl)-1,4-dihydro-1,8-naphthyridine-3-carboxamide] came in with a concentration for a half-maximal effect (EC50) under setting [2] of 97 nM. Further, the Emax under setting [3] is 98%. Under setting [1], `CC(NC(=O)c1cn(-c2ccc(F)cc2F)c2nc(N3C[C@@H](O)CC3=O)ccc2c1=O)c1ccccc1F` (stereo partly drawn) [Example 235, 1-(2,4-Difluorophenyl)-N-[1-(2-fluorophenyl)ethyl]-7-[(4S)-4-hydroxy-2-oxopyrrolidin-1-yl]-4-oxo-1,4-dihydro-1,8-naphthyridine-3-carboxamide] showed an EC50 of 207 nM. Under setting [2], `O=C(N[C@@H](C1CC1)C(F)(F)F)c1cn(-c2c(F)cc(F)cc2F)c2nc(N3CC4(CC4)NC3=O)ccc2c1=O` [Example 450, N-[(1 S)-1-Cyclopropyl-2,2,2-trifluoroethyl]-4-oxo-7-(5-oxo-4,6-diazaspiro[2.4]hept-6-yl)-1-(2,4,6-trifluorophenyl)-1,4-dihydro-1,8-naphthyridine-3-carboxamide] showed an EC50 of 19 nM. Besides, under setting [3], the Emax amounted to 78.5%. `O=C(NC(c1ccccc1Cl)C(F)(F)F)c1cn(-c2c(F)cc(F)cc2F)c2nc(N3C[C@@H](O)CC3=O)ccc2c1=O` (mixture of isomers) [Example 532, N-[1-(2-Chlorophenyl)-2,2,2-trifluoroethyl]-7-[(4S)-4-hydroxy-2-oxopyrrolidin-1-yl]-4-oxo-1-(2,4,6-trifluorophenyl)-1,4-dihydro-1,8-naphthyridine-3-carboxamide] yielded a concentration giving a half-maximal response (EC50) under setting [2] of 18 nM. Besides, under setting [3], the Emax is 92%.
